# Experimental data from patent US6353124B1, “Therapeutic compound-fatty acid conjugates” (priority 1993, dated 2002).
# Where two headings read alike, the source gives them in different places.
# What was measured:
# [1] = tested on: UVB induced oedema; assay: UVB induced oedema (net skin fold thickness increase) in SKH-1 hairless mice, topical application; assay type: in vivo; conditions: for Immediate Activity Results, highest to lowest (ranking): painted after 3 MED UVB, 4% ibuprofen equivalent (Ibu-ATP3 at 2%), FIG. 5; for effect on oedema at 2%: 2% ibuprofen, as the conjugate or as the free drug; for photoprotection against UVB induced oedema against interval of application: crude 2% (30% purity, contaminated with GTP2), 100 μl, days -5 to 0, FIG. 3
# Experimental: The vehicle used was a variation of previously published vehicles and consisted of ethanol:DMSO at a 5:1 ratio. […] The oedema was then determined by measuring the skin fold thickness (SFT) of a folded mid-dorsal piece of skin using a hand-held micrometer. Measurements were taken at 0 hours, just prior to UVB exposure and at 24 hours post UVB exposure. A control group, painted with 60 or 100 μl of the vehicle, was used to determine the increase in skin oedema due to the inflammatory response. […] The pre UVB SFT measurement was subtracted from the 24 hour SFT measurement, to determine the Net Skin Fold Thickness increase (NSFT).
# [2] = tested on: UVB induced burns; assay: Effect on UVB induced burns in mice, topical application; assay type: in vivo
# Experimental: (§1) Method Groups of 3 female mice were exposed to 3 MED of UVB on their dorsal surface and then were immediately painted (by smoothing the topical solution over the dorsal surface) with 60 μl or 100 μl of vehicle or vehicle containing increasing concentrations of NSAID's or NSAID fatty acid conjugates. The vehicle used was a variation of previously published vehicles and consisted of ethanol:DMSO at a 5:1 ratio. The test NSAID's and their conjugates were either applied after UVB irradiation to reduce the possibility of sun-screening effects (Day 0), or 1 to 5 days prior to UVB exposure. The oedema was then determined by measuring the skin fold thickness (SFT) of a folded mid-dorsal piece of skin using a hand-held micrometer. Measurements were taken at 0 hours, just prior to UVB exposure and at 24 hours post UVB exposure. A control group, painted with 60 or 100 μl of the vehicle, was used to determine the increase in skin oedema due to the inflammatory response. […] The pre UVB SFT measurement was subtracted from the 24 hour SFT measurement, to determine the Net Skin Fold Thickness increase (NSFT).
# Individual scores are presented for each mouse ie a result indicated as 5,4,3 is interperated as the first mouse having a severe burn, the second mouse a moderate to severe burn and the third mouse a moderate burn.
# [3] = tested on: Skh-1 mouse; assay: Toxicity and tolerability of topically applied indomethacin in Skh-1 mice; assay type: in vivo; conditions: painted on dorsal surface, range 0.1% to 2.5% tested
# Experimental: as §1
# As a preliminary study the ability of indomethacin to protect against oedema in Skh-1 mouse was determined. Indomethacin over a concentration range from 0.1% to 2.5% was applied after the mice had been irradiated with UVB; non-irradiated controls were also run. […]
# [4] = tested on: sunburn erythema; conditions: 2.5% in propylene glycol:ethanol:dimethylacetamide (19:19:2), 3 MED of UV light, humans; cited from earlier work
# [5] = tested on: sunburn erythema; conditions: 2.5% in propylene glycol:ethanol:dimethylacetamide (19:19:2), 3 MED of UV light, guinea-pigs; cited from earlier work
molecule,measurement,setting,value
ibuprofen-alanine-Tris [Ibu-AT],"Immediate Activity Results, highest to lowest (ranking)",[1],4% Ibu=4% Ibu-ATP>4% Ibu-ATP2>4% Ibu-AT=2% Ibu-ATP3
ibuprofen-alanine-Tris-monopalmitate [Ibu ATP1],effect on oedema at 2%,[1],little effect on oedema
same,"Immediate Activity Results, highest to lowest (ranking)",[1],4% Ibu=4% Ibu-ATP>4% Ibu-ATP2>4% Ibu-AT=2% Ibu-ATP3
same,protective effect on UVB induced burns,"[2]; 2%, painted after 3 MED UVB, compared with unmodified ibuprofen",protective effect on UVB induced burns to a much greater extent than unmodified ibuprofen
ibuprofen-alanine-Tris-tripalmitate [Ibu-ATP3],"Immediate Activity Results, highest to lowest (ranking)",[1],4% Ibu=4% Ibu-ATP>4% Ibu-ATP2>4% Ibu-AT=2% Ibu-ATP3
α-Methyl-4-(2-methylpropyl)benzene acetic acid [Ibu cont],effect on oedema at 2%,[1],little effect on oedema
same,"Immediate Activity Results, highest to lowest (ranking)",[1],4% Ibu=4% Ibu-ATP>4% Ibu-ATP2>4% Ibu-AT=2% Ibu-ATP3
ibuprofen-alanine-Tris-dipalmitate [Ibu-ATP2],"Immediate Activity Results, highest to lowest (ranking)",[1],4% Ibu=4% Ibu-ATP>4% Ibu-ATP2>4% Ibu-AT=2% Ibu-ATP3
indomethacin-glycine-Tris-dipalmitate [Indo-GTP2],photoprotection against UVB induced oedema against interval of application,[1],most protective 5 days prior to irradiation with UVB
same,photoprotection against UVB induced oedema against interval of application,[1]; listed as indomethacin-glycine-Tris-dipalmitate,most pronounced at 5 days prior to exposure with UVB
same,prolonged and immediate protective activity against UVB induced oedema,"[1]; high purity, 2% (indomethacin equivalent), painted 5 days prior to or immediately after UVB, compared with Indo-GTP3, Indo-EP1, Indo-GEP1, FIG. 4",highest levels of prolonged and immediate activity
"COc1ccc2c(c1)c(CC(=O)O)c(C)n2C(=O)c1ccc(Cl)cc1 [indomethacin, 1-(4-Chlorobenzoyl)-5-methoxy-2-methyl-1H-indole-3-acetic acid]",anti-inflammatory effect at 0.1%,"[1]; 0.1% applied after UVB, 24 hours",mild anti-inflammatory effect
same,erythema and oedema with concentration,[1]; 0.1% to 2.5% applied after UVB,decrease in erythema and oedema with increasing concentrations
same,"protection against UVB induced oedema, applied 3 days prior to UVB","[1]; 1% indomethacin, 3 days prior to exposure, FIG. 2",approximately 50%
same,"protection against UVB induced oedema, applied 5 days prior to UVB","[1]; 1% indomethacin, 5 days prior to exposure, FIG. 2",not present
same,protective effect on UVB induced oedema against interval of application,"[1]; 100 μl of 1% solution, days -5 to -1 before UVB and Day 0, NSFT at 24 hours, FIG. 2",loses its protective effect on UVB induced oedema as the interval of application prior to exposure increases
same,concentration giving maximal protection against erythema and oedema,"[1]; applied after UVB, 24 hours, range 0.1% to 2.5%",≥ 1%
same,effect on burn repair,[2]; indomethacin levels that prevent oedema,little or no effect on burn repair
same,topical concentration lethal after 36 hours (gastrointestinal haemorrhage),[3],≥ 2%
same,protection against sunburn erythema,[4],total protection
same,protection against sunburn erythema,[5],total protection
